Tests used:
[1] = test system: APE1 repair activity in neurons; conditions: cited from earlier work
[2] = test system: HIF-regulated genes; assay: RNA-Seq of HIF-regulated genes in HRECs; format: cell-based, human; conditions: 0.1 and 1 μM, 6 and 24 hours
Protocol: Human retinal endothelial cells (HRECs) (Cell Systems, Inc. Kirkland, Wash.) were plated in 6-well plates and treated with 0.1 μM APX2009, 1 μM APX2009 or DMSO for 6 hours and 24 hours. Cells were washed once after treatment with PBS, collected and frozen. This process was repeated to collect treated cells in 4 different passages. RNA was extracted in 300 μL Trizol (Life Technologies, Carlsbad, Calif.) and flash frozen at −80° C. The SMARTer system (Clontech, Mountain View, Calif.) was used to generate cDNA from cells. The dscDNA quantity and quality was assessed using an Agilent Bioanalyzer (Agilent Technologies, Santa Clara, Calif., USA) with the High Sensitivity DNA Chip. […] The IUSM Genomics Facility prepared libraries using a Nextera kit (Illumina, San Diego, Calif.). DNAs were sequenced using the Illumina HiSeq 4000.

SMILES: CCC/C(=C\C1=C(OC)C(=O)c2ccccc2C1=O)C(=O)N(CC)CC [APX2009, (2E)-2-[(3-methoxy-1,4-dioxo-1,4-dihydronaphthalen-2-yl)methylidene]-N,N-diethylpentanamide]
- APE1 repair activity in neurons [1]: can enhance APE1 repair activity
- expression of HIF regulated genes (RNA-Seq) [2]: blocked HIF regulated genes in a concentration dependent manner
